Experimental data as given in patent US6500669B1, “Programmable genotoxic agents and uses therefor” (Massachusetts Institute of Technology, priority 1994, dated 2002).
Read-outs that look alike come from different tables or passages of the source.

Assays:
estrogen receptor (ER) [1] = biological target: T1, estrogen receptor (ER) (Bos taurus, UniProt P49884); format: binding, calf
T1 construct: uterine cytosol was prepared by homogenizing calf uteri; from tissue; host or cells: calf uterus, cytosol (105,000 g supernatant)
T1 sequence (P49884 1-596): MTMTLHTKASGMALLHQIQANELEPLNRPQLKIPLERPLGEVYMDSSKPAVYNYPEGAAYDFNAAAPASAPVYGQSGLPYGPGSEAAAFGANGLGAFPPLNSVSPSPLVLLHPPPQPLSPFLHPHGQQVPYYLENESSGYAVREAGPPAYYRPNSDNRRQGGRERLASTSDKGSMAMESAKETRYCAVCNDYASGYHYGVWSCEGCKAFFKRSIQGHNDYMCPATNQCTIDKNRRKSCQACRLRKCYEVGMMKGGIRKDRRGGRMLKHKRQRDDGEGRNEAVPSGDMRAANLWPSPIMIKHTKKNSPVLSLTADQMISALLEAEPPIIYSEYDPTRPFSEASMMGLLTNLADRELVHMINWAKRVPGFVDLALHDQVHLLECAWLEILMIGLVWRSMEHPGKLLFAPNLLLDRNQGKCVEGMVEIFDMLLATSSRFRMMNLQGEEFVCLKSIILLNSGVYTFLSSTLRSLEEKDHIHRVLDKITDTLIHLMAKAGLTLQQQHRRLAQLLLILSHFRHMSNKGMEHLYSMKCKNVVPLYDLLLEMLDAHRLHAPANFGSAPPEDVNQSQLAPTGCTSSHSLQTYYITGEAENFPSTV

[2] = system: HeLa 36 (ER+) and HeLa 7 (ER-) cells; assay: Methylene blue dye binding toxicity assay in HeLa ER transformants
[3] = system: MCF-7 and MDA-MB-231 cells; assay: Methylene blue dye binding growth assay in breast tumor cell lines; format: cell-based, human; conditions: ED50 = concentration that inhibits cell growth by 50%
Description: The toxicities of the preferred 2-phenylindole-C6NC2-mustard and homologous ligand decoy compounds for selected cells distinguished phenotypically from nonselected cells by expression of ER were tested using the human breast tumor cell lines, MCF-7 and MDA-MB-231, according to the guidelines set forth in Example 10 (above). The MCF-7 cell line expresses the estrogen receptor protein, while no ER protein can be detected in the MDA-MB-231 cell line.
Both cell lines were routinely cultured in Minimal Essential Medium (MEM) supplemented with 2 mM gluatamine, 1 mM sodium pyruvate and 10% fetal calf serum. To determine the toxicity of test compounds, cells were trypsinized and plated in 100 μl of media in 96-well microtiter plates at the following densities: MCF-7, 2000 cells/well; MDA-MB-231, 1000 cells/well. Cells were allowed to grow for 24 hours in the 96-well plates prior to treatment with the compounds. […]
Each treatment condition was conducted in replicates of 8 wells. […] On day 4, cell growth in treated and control cultures was determined using the methylene blue dye binding assay.
A dye-binding assay as described by Finlay et al. (1984), 139 Anal. Biochem. 272 was used to assess the cytotoxic effects of 2-phenylindole-C6NC2-mustard and homologous ligand decoy compounds. […] The absorbance of the solubilized dye was read at 620 nm in a Ceres 9000 plate reader (Biotek).

estrogen receptor (ER) [4] = biological target: T1, estrogen receptor (ER); assay: In vitro [3H]E2 competition assay, calf uterine extracts, free compounds; format: binding; conditions: free compound
Description: Assays were performed by premixing a range of concentrations of the test compound with a fixed amount of tritium labeled estradiol ([^3H]E2). Calf uterine cytosol was then added. After incubation overnight at 4° C., activated charcoal/dextran was added to remove unbound [^3H]E2. Following centrifugation to remove the charcoal/dextran, levels of bound (i.e., non-competed) [^3H]E2 were determined by liquid scintillation spectrometry. Low concentrations of test compound required to abolish [^3H]E2 binding in this assay indicate a tight association between the test compound and the ER.

hUBF = biological target: T2, hUBF (Homo sapiens, UniProt P17480); assay: Southwestern blotting of hUBF with platinated DNA probes; format: binding; conditions: southwestern and western blot; DNA globally modified by the platinum compound
T2 construct: made in house; host or cells: in vitro transcription and translation (cell-free) from plasmid pTbGUBF1
T2 sequence (P17480 1-764): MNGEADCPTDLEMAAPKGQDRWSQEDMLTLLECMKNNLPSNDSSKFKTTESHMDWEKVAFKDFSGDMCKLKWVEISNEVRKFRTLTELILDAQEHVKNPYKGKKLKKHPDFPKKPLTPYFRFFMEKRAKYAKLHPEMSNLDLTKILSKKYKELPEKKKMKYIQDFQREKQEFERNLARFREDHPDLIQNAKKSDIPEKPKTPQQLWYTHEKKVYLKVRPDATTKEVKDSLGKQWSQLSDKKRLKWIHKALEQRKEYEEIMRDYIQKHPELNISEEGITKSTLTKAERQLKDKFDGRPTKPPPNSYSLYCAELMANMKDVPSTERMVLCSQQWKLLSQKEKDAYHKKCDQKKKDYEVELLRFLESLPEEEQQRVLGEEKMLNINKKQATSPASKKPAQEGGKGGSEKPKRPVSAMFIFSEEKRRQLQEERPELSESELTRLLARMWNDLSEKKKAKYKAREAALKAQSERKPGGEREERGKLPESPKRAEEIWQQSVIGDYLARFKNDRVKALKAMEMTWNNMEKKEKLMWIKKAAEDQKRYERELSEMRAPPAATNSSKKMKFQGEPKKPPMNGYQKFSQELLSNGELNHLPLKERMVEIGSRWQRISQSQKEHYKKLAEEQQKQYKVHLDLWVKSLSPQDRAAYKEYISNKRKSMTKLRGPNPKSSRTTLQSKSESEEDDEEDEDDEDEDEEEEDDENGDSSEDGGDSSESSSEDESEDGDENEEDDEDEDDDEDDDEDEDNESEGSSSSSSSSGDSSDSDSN
Description: Probe Preparation. The DNA probe used for southwestern blotting was a 422 base pair (bp) AvaI restriction fragment excised from M13mp19 replicative form DNA. Platinated probes were prepared by treating the AvaI-digested DNA with cisplatin or trans-DDP, and the formal bound drug/nucleotide ratios (rb) were determined by using atomic absorption spectroscopy as described in Donahue et al. (1990), 29 Biochemistry 5872-5880.
Western and Southwestern Blotting Technique. HeLa whole cell extracts (WCE) were prepared by the sonication procedure of Samson et al. (1986), 83 Proc. Natl. Acad. Sci. U.S.A. 5607-5610. The 97 kDa hUBF species was synthesized by in vitro transcription and translation from the plasmid pTbGUBF1 as reported in Jantzen et al. (1992), 6 Genes & Dev. 1950-1963. In vitro translated hUBF was quantitated by the incorporation of ^35S-methionine. Protein samples ([…] WCE or 8 ng hUBF) were resolved on 5-15% gradient SDS polyacrylamide gels and transferred to nitrocellulose membranes. Parallel blots of HeLa whole cell extracts (WCE) and in vitro translated hUBF (hUBF) were probed with various ^32P labeled DNA fragments (southwestern analysis, panels A-C of FIG. 2) or antiserum against hUBF (Anti-NOR-90) (panel D of FIG. 2). For southwestern analysis, the air dried membranes were processed as reported in Toney et al. (1989), 86 Proc. Natl. Acad. Sci. U.S.A. 8328-8332. […]

O=C(NCCCc1ccc(N(CCCl)CCCl)cc1)OCCNCCCCCCn1c(-c2ccc(O)cc2)cc2cc(O)ccc21 [2-phenylindole-C6NC2-mustard]
affinity of DNA lesions formed by the compound for ER (estrogen receptor (ER) [1]): compete effectively | differential in toxicity between HeLa 36 and HeLa 7 ([2]; 4 hr. exposure, 2.5 μM dose): approximately a two-fold differential | cytotoxicity in HeLa 36 cells relative to HeLa 7 cells ([2]; 4 hr. exposure, 5 μM dose): four- to five-fold greater cytotoxicity | effect in HeLa 36 cells relative to HeLa 7 cells ([2]; 4 day exposure): selectively toxic and growth inhibitory effect | ED50 in MCF-7 relative to ED50 in MDA-MB-231 [3]: two- to three-fold lower | affinity for the ER relative to estradiol (E2) (estrogen receptor (ER) [4]; calf uterine cytosol): ≤ 20 fold | affinity for the ER (in words) (estrogen receptor (ER) [4]; competition with [3H]E2): highest affinity

N.N.[Cl][Pt][Cl] [trans-DDP, trans-Diamminedichloroplatinum (II)]
binding of in vitro translated hUBF to drug-modified DNA (hUBF): failed to recognize

N.N.[Cl][Pt][Cl] [cisplatin, cis-diamminedichloro-platinum(II)]
binding of in vitro translated hUBF to drug-modified DNA (hUBF): bound

O=C(O)CCCc1ccc(N(CCCl)CCCl)cc1 [chlorambucil, reference compound]
affinity of DNA lesions formed by the compound for ER (estrogen receptor (ER) [1]; isolated DNA lesioned with compound, competition with E2): no affinity
